pIC50: −log10 of the molar value. Like-named read-outs stand apart in the source and are kept apart here.
What was measured:
CYP2D6 [1] = target: T1, CYP2D6 (Homo sapiens, UniProt P10635); assay: clinical; conditions: plasma, 100 mg
CYP2D6 [2] = target: T1, CYP2D6
CYP2D6 [3] = target: T1, CYP2D6; assay: CYP2D6 inhibition in human liver microsomes; format: in vitro ADME
CYP1A2 [4] = format: in vitro ADME, human
CYP2B6 = format: in vitro ADME, human
CYP2C8 [5] = format: in vitro ADME, human
CYP2C9 [6] = format: in vitro ADME, human
CYP2C19 [7] = format: in vitro ADME, human
CYP3A4/5 = CYP3A4/5 induction in cultured human hepatocytes; format: in vitro ADME
[8] = Safety and adverse events in the phase‐1 study in healthy subjects; format: in vivo, human
CYP2D6 [9] = target: T1, CYP2D6; conditions: up to 100 μmol l^–1 pridopidine
clinical = conditions: human, plasma, oral, 45 mg
[10] = cited from earlier work; for elimination half‐life: metabolite
[11] = not given; remark: listed apart in the source
CYP3A4 = CYP3A4 (Homo sapiens, UniProt P08684); assay: CYP3A4 inhibition in human liver microsomes; format: in vitro ADME; conditions: HLM; TV‐45065 0.05 to 50 μmol l^–1
CYP3A4, sequence (P08684 2-503): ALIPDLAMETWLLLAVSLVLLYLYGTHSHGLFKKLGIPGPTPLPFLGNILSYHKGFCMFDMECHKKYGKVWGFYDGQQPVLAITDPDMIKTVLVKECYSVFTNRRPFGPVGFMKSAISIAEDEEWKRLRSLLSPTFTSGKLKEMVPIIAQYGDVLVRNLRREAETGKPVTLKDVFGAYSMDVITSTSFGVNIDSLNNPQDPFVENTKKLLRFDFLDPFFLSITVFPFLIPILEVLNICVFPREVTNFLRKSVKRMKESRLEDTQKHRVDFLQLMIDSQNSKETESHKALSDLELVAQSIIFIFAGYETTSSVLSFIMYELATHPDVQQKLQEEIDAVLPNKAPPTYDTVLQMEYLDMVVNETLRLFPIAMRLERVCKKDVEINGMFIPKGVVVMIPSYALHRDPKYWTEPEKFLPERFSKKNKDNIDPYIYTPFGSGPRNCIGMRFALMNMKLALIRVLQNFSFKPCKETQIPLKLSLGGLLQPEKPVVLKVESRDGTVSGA

CYP1A2 [12] = target: T2, CYP1A2 (Homo sapiens, UniProt P05177); conditions: HLM; TV‐45065 0.05 to 50 μmol l^–1
T2 sequence (P05177 1-516): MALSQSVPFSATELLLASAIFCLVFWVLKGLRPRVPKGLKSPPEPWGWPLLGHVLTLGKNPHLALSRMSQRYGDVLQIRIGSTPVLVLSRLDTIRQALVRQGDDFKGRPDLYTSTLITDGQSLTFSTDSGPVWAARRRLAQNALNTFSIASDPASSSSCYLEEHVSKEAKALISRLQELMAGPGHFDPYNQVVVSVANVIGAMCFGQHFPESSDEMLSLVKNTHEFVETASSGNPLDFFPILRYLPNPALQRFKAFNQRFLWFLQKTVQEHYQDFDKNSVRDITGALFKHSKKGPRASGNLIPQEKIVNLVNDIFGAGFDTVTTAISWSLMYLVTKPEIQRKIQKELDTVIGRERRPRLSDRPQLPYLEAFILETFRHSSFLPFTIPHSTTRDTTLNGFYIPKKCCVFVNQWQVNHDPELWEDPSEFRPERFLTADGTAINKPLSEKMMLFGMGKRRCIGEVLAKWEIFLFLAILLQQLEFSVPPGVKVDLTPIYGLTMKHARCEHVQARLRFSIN

CYP2C8 [13] = target: T3, CYP2C8 (Homo sapiens, UniProt P10632); conditions: HLM; TV‐45065 0.05 to 50 μmol l^–1; printed CYP2C8/9
T3 sequence (P10632 1-490): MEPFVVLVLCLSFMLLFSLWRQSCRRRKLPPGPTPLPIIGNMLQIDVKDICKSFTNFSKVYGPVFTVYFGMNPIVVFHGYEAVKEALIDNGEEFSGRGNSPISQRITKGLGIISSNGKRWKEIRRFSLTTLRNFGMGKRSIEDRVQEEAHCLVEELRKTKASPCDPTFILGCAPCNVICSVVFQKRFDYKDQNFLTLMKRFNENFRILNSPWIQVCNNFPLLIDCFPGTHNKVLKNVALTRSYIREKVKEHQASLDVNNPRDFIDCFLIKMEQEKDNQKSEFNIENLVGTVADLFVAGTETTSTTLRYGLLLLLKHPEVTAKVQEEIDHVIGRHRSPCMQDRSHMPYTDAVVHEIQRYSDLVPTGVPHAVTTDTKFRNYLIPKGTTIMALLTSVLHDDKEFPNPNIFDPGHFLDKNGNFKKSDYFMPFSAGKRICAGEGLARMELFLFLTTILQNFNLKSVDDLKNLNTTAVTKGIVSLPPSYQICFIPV

CYP2C9 [14] = target: CYP2C9 (Homo sapiens, UniProt P11712); conditions: HLM; TV‐45065 0.05 to 50 μmol l^–1; printed CYP2C8/9
CYP2C9 (Homo sapiens, UniProt P11712), sequence (P11712 whole entry): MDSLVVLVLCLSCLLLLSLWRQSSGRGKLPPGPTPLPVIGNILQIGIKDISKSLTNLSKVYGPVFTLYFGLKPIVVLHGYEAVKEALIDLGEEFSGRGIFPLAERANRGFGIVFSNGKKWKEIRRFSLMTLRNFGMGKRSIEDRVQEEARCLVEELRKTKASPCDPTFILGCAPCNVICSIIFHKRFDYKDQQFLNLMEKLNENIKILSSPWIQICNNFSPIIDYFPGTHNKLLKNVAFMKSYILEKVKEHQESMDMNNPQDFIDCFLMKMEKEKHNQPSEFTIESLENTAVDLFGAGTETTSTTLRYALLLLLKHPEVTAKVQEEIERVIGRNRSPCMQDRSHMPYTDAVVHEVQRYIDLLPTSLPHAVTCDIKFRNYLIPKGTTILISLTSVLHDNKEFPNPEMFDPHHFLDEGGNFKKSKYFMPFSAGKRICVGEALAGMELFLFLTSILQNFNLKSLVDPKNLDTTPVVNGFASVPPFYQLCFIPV

CYP2C19 [15] = target: CYP2C19 (Homo sapiens, UniProt P33261); conditions: HLM; TV‐45065 0.05 to 50 μmol l^–1
CYP2C19 (Homo sapiens, UniProt P33261), sequence (P33261 whole entry): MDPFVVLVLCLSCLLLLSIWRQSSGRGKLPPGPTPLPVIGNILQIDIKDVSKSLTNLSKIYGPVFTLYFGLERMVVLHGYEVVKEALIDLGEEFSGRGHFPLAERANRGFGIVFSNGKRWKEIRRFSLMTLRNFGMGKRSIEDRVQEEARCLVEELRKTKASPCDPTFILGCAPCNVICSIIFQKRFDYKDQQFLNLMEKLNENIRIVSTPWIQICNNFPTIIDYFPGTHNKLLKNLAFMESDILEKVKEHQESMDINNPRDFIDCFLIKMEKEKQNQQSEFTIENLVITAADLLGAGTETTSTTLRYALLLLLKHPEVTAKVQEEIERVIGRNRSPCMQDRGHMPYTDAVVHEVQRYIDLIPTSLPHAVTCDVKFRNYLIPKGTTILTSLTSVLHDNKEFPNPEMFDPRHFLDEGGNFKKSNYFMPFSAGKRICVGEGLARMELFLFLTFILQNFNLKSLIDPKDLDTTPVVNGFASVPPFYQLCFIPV

[16] = caused by steady‐state pridopidine (discussion)
[17] = metoprolol coadministered with pridopidine vs alone
[18] = up to 100 μmol l^–1 pridopidine, 3 days, three hepatocyte cultures
[19] = up to 100 μmol l^–1 pridopidine, cultured human hepatocytes
[20] = up to 50 μmol l^–1 TV‐45065, three consecutive days

T1 sequence (P10635 whole entry): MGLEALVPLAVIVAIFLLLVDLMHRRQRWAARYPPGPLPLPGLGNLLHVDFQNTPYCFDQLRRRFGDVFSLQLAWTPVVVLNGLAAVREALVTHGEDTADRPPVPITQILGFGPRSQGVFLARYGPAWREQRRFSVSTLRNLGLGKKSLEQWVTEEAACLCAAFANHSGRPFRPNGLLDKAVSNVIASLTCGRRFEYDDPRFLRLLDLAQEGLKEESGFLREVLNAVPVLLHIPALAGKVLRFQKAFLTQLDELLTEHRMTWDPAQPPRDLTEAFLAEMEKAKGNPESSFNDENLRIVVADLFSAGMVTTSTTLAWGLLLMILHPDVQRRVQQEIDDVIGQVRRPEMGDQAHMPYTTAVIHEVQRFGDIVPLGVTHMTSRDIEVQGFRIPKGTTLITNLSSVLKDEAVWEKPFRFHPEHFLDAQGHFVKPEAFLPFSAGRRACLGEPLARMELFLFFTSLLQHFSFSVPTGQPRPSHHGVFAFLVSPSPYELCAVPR

SMILES: COCCc1ccc(OCC(O)CNC(C)C)cc1 (stereo not shown) [metoprolol]
- Tmax (CYP2D6 [1]; oral): 0.75 to 2 h
- AUC(0-inf) (CYP2D6 [1]; po): 0.46 µg·h/mL
- AUC(0-t) (CYP2D6 [1]; po): 0.447 µg·h/mL
- Cmax (CYP2D6 [1]; po): 0.084 µg/mL
- Tmax (CYP2D6 [1]; po): ~2 h
- increase in metoprolol AUC (CYP2D6 [2]; [16]): up to 5 fold
- increase in metoprolol peak concentrations (CYP2D6 [2]; [16]): up to 3 fold
- t½, mean (SD) (CYP2D6 [2]; metoprolol 100 mg single oral dose alone): 3.69 (0.83) h
- increase in mean AUC0–∞ (CYP2D6 [2]; [17]): 5.1 fold
- increase in mean Cmax (CYP2D6 [2]; [17]): 3.5 fold
- range of tmax (CYP2D6 [2]; metoprolol during coadministration with pridopidine): 1 to 4 h

SMILES: CCCN1CCC(c2cccc(S(C)(=O)=O)c2)CC1 [pridopidine, 4‐[3‐(methylsulfonyl)phenyl]‐1‐propylpidperidine]
- effect of heat inactivation of FMO on CYP2D6 MDI extent (CYP2D6 [3]; HLM heat treated (50°C, 2 min)): did not affect
- pIC50 (CYP2D6 [3]; IC50, direct inhibition (no preincubation), HLM, preincubation time row 2 h): 4.41
- pIC50 (CYP2D6 [3]; IC50, direct inhibition (no preincubation), HLM, preincubation time row 3 h): 4.41
- pIC50 (CYP2D6 [3]; IC50, direct inhibition (no preincubation), HLM, preincubation time row 4 h): 4.41
- reversibility of metabolism‐dependent inhibition of CYP2D6 (CYP2D6 [3]; microsomal re‐isolation or addition of potassium ferricyanide): not reversed
- change in CYP1A2 mRNA levels (CYP1A2 [4]; [18]): < 2 fold
- change in CYP1A2 activity (CYP1A2 [4]; [19]): < 2 fold
- change in CYP2B6 mRNA levels (CYP2B6; [18]): < 2 fold
- change in CYP2B6 activity (CYP2B6; [19]): < 2 fold
- change in CYP2C8 mRNA levels (CYP2C8 [5]; [18]): < 2 fold
- change in CYP2C8 activity (CYP2C8 [5]; [19]): < 2 fold
- change in CYP2C9 mRNA levels (CYP2C9 [6]; [18]): < 2 fold
- change in CYP2C9 activity (CYP2C9 [6]; [19]): < 2 fold
- change in CYP2C19 mRNA levels (CYP2C19 [7]; [18]): < 2 fold
- change in CYP2C19 activity (CYP2C19 [7]; [19]): < 2 fold
- change in CYP3A4 mRNA levels (CYP3A4/5; [18]): < 2 fold
- amnestic aphasia, subjects ([8]; following BID administration, two subjects): 9.1%
- increase in pulse rate ([8]; pridopidine 45 mg BID): up to 12 beats min^–1
- decrease in CYP2D6 activity compared to vehicle control (CYP2D6 [9]; hepatocyte cultures, vehicle 0.1% DMSO): up to 64.2%
- change in CYP2D6 mRNA levels (CYP2D6 [9]; 3 days, three hepatocyte cultures): < 2 fold
- Cmax (clinical): 0.525 µg/mL
- time (tmax) to reach Cmax ([10]; oral administration): roughly 2 h
- mean peak concentration in plasma ([10]; single 45‐mg dose): 303 ng ml^–1
- pridopidine exposure ([10]; single dose, extensive metabolizers): 3782 ng h ml^–1
- pridopidine exposure ([10]; single dose, poor metabolizers): 11 192 ng h ml^–1
- mean peak concentration in plasma ([10]; steady state following 14 days of 45 mg BID dosing): 620 ng ml^–1
- pridopidine exposure ([10]; steady state, extensive metabolizers): 9338 ng h ml^–1
- pridopidine exposure ([10]; steady state, poor metabolizers): 12 080 ng ml^–1
- Cmax,ss, mean (SD) (45 mg BID for 7 days, PM (6–18 h), metoprolol given with PM dose): 727.30 (152.38) ng ml^–1
- Cav,ss, mean (SD) (45 mg BID, AM (0–6 h)): 407.29 (90.82)
- AUCss, mean (SD) (45 mg BID, AM (0–6 h), AUC0–6): 2443.75 (544.95) ng h ml^–1
- Cav,ss, mean (SD) (45 mg BID, PM (6–18 h)): 447.33 (92.19)
- AUCss, mean (SD) (45 mg BID, PM (6–18 h), AUC0–18 following the afternoon dose): 8052.03 (1659.34) ng h ml^–1
- time of BID dosing after which steady state was reached (45 mg BID, morning trough plasma levels): 7 days
- difference in median tmax, fed state in comparison to fasted state ([11]; single 90‐mg dose): 1.5 h

SMILES: CS(=O)(=O)c1cccc(C2CCNCC2)c1 [TV‐45065]
- direct inhibition of CYP2D6 (CYP2D6 [3]; HLM, TV‐45065 0.05 to 50 μmol l^–1): did not show any direct inhibition
- pIC50 (CYP2D6 [3]; read-out: IC50, time‐/metabolism‐dependent inhibition of CYP2D6, HLM, TV‐45065 0.05 to 50 μmol l^–1): < 4.30
- direct inhibition of CYP3A4 (CYP3A4): did not show any direct inhibition
- CYP1A2 induction, effectiveness relative to positive control CYP inducer (CYP1A2 [4]; [20]): ≤ 20%
- increase in CYP1A2 activity or mRNA expression (on average) (CYP1A2 [4]; [20]): ≤ 2.0 fold
- CYP2B6 induction, effectiveness relative to positive control CYP inducer (CYP2B6; [20]): ≤ 20%
- increase in CYP2B6 activity or mRNA expression (on average) (CYP2B6; [20]): ≤ 2.0 fold
- CYP2C8 induction, effectiveness relative to positive control CYP inducer (CYP2C8 [5]; [20]): ≤ 20%
- increase in CYP2C8 activity or mRNA expression (on average) (CYP2C8 [5]; [20]): ≤ 2.0 fold
- CYP2C9 induction, effectiveness relative to positive control CYP inducer (CYP2C9 [6]; [20]): ≤ 20%
- increase in CYP2C9 activity or mRNA expression (on average) (CYP2C9 [6]; [20]): ≤ 2.0 fold
- CYP2C19 induction, effectiveness relative to positive control CYP inducer (CYP2C19 [7]; [20]): ≤ 20%
- increase in CYP2C19 activity or mRNA expression (on average) (CYP2C19 [7]; [20]): ≤ 2.0 fold
- CYP3A4/5 induction, effectiveness relative to positive control CYP inducer (CYP3A4/5; [20]): ≤ 20%
- increase in CYP3A4/5 activity or mRNA expression (on average) (CYP3A4/5; [20]): ≤ 2.0 fold
- direct inhibition of CYP1A2 (CYP1A2 [12]): did not show any direct inhibition
- direct inhibition of CYP2C8 (CYP2C8 [13]): did not show any direct inhibition
- direct inhibition of CYP2C9 (CYP2C9 [14]): did not show any direct inhibition
- direct inhibition of CYP2C19 (CYP2C19 [15]): did not show any direct inhibition
- elimination half‐life ([10]; repeated administration, extensive metabolizers): 17 h
- elimination half‐life ([10]; repeated administration, poor metabolizers): 19 h
- elimination half‐life ([10]; single dose administration, extensive metabolizers): approximately 8 h
- elimination half‐life ([10]; single dose administration, poor metabolizers): ~32 h
- Cmax and AUC, fed vs fasted states ([11]; metabolite after single 90‐mg pridopidine dose, data not shown): similar
